According to PubChem BioAssay (NCI):
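How tested: cells in 96-well plates exposed to compound for 48 hours at five concentrations. At the TGI there is no net growth.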

Tests used:
Assay in all cases: NCI tumour cell line growth inhibition, 48 h
[1] = tested on: DLD-1 colon
[2] = tested on: OVCAR-4 ovarian
[3] = tested on: SNB-75 CNS
[4] = tested on: SN12C renal
[5] = tested on: SF-295 CNS
[6] = tested on: RPMI-8226 leukemia
[7] = tested on: HOP-92 NSCLC
[8] = tested on: SF-539 CNS
[9] = tested on: M14 melanoma
[10] = tested on: HOP-18 NSCLC
[11] = tested on: TK-10 renal
[12] = tested on: HT29 colon
[13] = tested on: CAKI-1 renal
[14] = tested on: K-562 leukemia
[15] = tested on: SNB-78 CNS
[16] = tested on: NCI-H460 lung
[17] = tested on: HOP-62 NSCLC
[18] = tested on: M19-MEL melanoma
[19] = tested on: CCRF-CEM leukemia
[20] = tested on: MOLT-4 leukemia
[21] = tested on: A498 renal
[22] = tested on: UO-31 renal
[23] = tested on: NCI-H522 lung
[24] = tested on: EKVX NSCLC
[25] = tested on: UACC-257 melanoma
[26] = tested on: SK-MEL-2 melanoma
[27] = tested on: A549 NSCLC
[28] = tested on: SK-MEL-28 melanoma
[29] = tested on: NCI-H226 lung
[30] = tested on: ACHN renal
[31] = tested on: SNB-19 CNS
[32] = tested on: XF 498 CNS
[33] = tested on: COLO 205 colon
[34] = tested on: U251 CNS
[35] = tested on: HCC-2998 colon
[36] = tested on: OVCAR-8 ovarian
[37] = tested on: DMS 273 small cell lung
[38] = tested on: SK-MEL-5 melanoma
[39] = tested on: KM12 colon
[40] = tested on: NCI-H23 lung
[41] = tested on: IGROV1 ovarian
[42] = tested on: HCT-15 colon
[43] = tested on: 786-0 renal
[44] = tested on: LXFL 529 NSCLC
[45] = tested on: HCT-116 colon
[46] = tested on: UACC-62 melanoma
[47] = tested on: SW-620 colon
[48] = tested on: KM20L2 colon
[49] = tested on: SF-268 CNS
[50] = tested on: OVCAR-3 ovarian
[51] = tested on: OVCAR-5 ovarian
[52] = tested on: LOX IMVI melanoma
[53] = tested on: SK-OV-3 ovarian
[54] = tested on: SR leukemia
[55] = tested on: MALME-3M melanoma
[56] = tested on: HL-60(TB) leukemia
[57] = tested on: RXF-631 renal
[58] = tested on: DMS 114 small cell lung
[59] = tested on: RXF 393 renal

CCN1CCC(O)(c2ccc(C)cc2)C(C(=O)c2ccc(C)cc2)C1 (stereo not drawn)
TGI [1]: 33.4 µM | TGI [2]: 50.1 µM | TGI [3]: > 100 µM | TGI [4]: 19.8 µM | TGI [5]: > 100 µM | TGI [6]: 41.5 µM | TGI [7]: 40.1 µM | TGI [8]: > 59.1 µM | TGI [9]: > 57.8 µM | TGI [10]: 36.9 µM | TGI [11]: > 61 µM | TGI [12]: 36.9 µM | TGI [13]: 31.3 µM | TGI [14]: > 100 µM | TGI [15]: > 76.8 µM | TGI [16]: > 81.1 µM | TGI [17]: > 100 µM | TGI [18]: > 61.2 µM | TGI [19]: 56 µM | TGI [20]: > 71.5 µM | TGI [21]: > 100 µM | TGI [22]: > 57.5 µM | TGI [23]: 3.44 µM | TGI [24]: 36.1 µM | TGI [25]: 36.6 µM | TGI [26]: > 100 µM | TGI [27]: > 100 µM | TGI [28]: 56 µM | TGI [29]: > 100 µM | TGI [30]: 32.1 µM | TGI [31]: > 100 µM | TGI [32]: 33.1 µM | TGI [33]: 48.8 µM | TGI [34]: > 83.9 µM | TGI [35]: > 100 µM | TGI [36]: 49.9 µM | TGI [37]: 34.7 µM | TGI [38]: > 57.2 µM | TGI [39]: > 91.9 µM | TGI [40]: > 55.1 µM | TGI [41]: > 58.9 µM | TGI [42]: 36.5 µM | TGI [43]: 26.6 µM | TGI [44]: 31.3 µM | TGI [45]: 30.3 µM | TGI [46]: > 60 µM | TGI [47]: 31.8 µM | TGI [48]: 17.7 µM | TGI [49]: > 71.8 µM | TGI [50]: 40.1 µM | TGI [51]: 47.4 µM | TGI [52]: > 61.2 µM | TGI [53]: > 100 µM | TGI [54]: 50.9 µM | TGI [55]: 35.1 µM | TGI [56]: 47.7 µM

Cc1c(Cl)ccc2c1NC(=O)C2(O)C(C(=O)c1ccccc1)c1ccccc1 (stereo not drawn)
TGI [1]: > 100 µM | TGI [2]: 28.7 µM | TGI [3]: > 100 µM | TGI [4]: > 100 µM | TGI [5]: 92.6 µM | TGI [6]: 69 µM | TGI [8]: > 100 µM | TGI [9]: > 100 µM | TGI [10]: > 100 µM | TGI [11]: > 100 µM | TGI [12]: > 100 µM | TGI [13]: > 100 µM | TGI [14]: > 100 µM | TGI [15]: > 100 µM | TGI [16]: > 100 µM | TGI [17]: > 100 µM | TGI [18]: 30.6 µM | TGI [19]: 73.8 µM | TGI [20]: 76.7 µM | TGI [21]: 70.1 µM | TGI [22]: > 100 µM | TGI [23]: 93.7 µM | TGI [24]: > 100 µM | TGI [25]: 89 µM | TGI [26]: > 100 µM | TGI [27]: > 100 µM | TGI [28]: > 100 µM | TGI [29]: > 100 µM | TGI [57]: > 100 µM | TGI [30]: > 100 µM | TGI [31]: > 100 µM | TGI [58]: 44.2 µM | TGI [32]: 96.9 µM | TGI [33]: > 100 µM | TGI [34]: > 100 µM | TGI [35]: > 100 µM | TGI [36]: > 100 µM | TGI [37]: > 100 µM | TGI [38]: 60 µM | TGI [39]: > 100 µM | TGI [40]: 42.2 µM | TGI [41]: > 100 µM | TGI [42]: > 100 µM | TGI [43]: > 100 µM | TGI [44]: > 100 µM | TGI [45]: > 100 µM | TGI [46]: 46 µM | TGI [47]: > 100 µM | TGI [48]: > 100 µM | TGI [49]: > 100 µM | TGI [51]: > 100 µM | TGI [59]: 73.8 µM | TGI [52]: > 100 µM | TGI [53]: > 100 µM | TGI [54]: 60.2 µM | TGI [55]: > 100 µM | TGI [56]: 39.5 µM

O=C(O)C(CP(=O)(O)O)=C(Cl)Cl
TGI [3]: > 100 µM | TGI [4]: > 100 µM | TGI [5]: > 100 µM | TGI [6]: > 100 µM | TGI [7]: > 100 µM | TGI [8]: > 100 µM | TGI [10]: > 100 µM | TGI [11]: > 100 µM | TGI [12]: > 100 µM | TGI [15]: > 100 µM | TGI [16]: > 100 µM | TGI [17]: > 100 µM | TGI [18]: > 100 µM | TGI [19]: > 100 µM | TGI [20]: > 100 µM | TGI [22]: > 100 µM | TGI [24]: > 100 µM | TGI [25]: > 100 µM | TGI [26]: > 100 µM | TGI [27]: > 100 µM | TGI [28]: > 100 µM | TGI [29]: > 100 µM | TGI [30]: > 100 µM | TGI [31]: > 100 µM | TGI [32]: > 100 µM | TGI [33]: > 100 µM | TGI [34]: > 100 µM | TGI [35]: > 100 µM | TGI [36]: > 100 µM | TGI [37]: > 100 µM | TGI [40]: > 100 µM | TGI [41]: > 100 µM | TGI [42]: > 100 µM | TGI [43]: > 100 µM | TGI [44]: > 100 µM | TGI [45]: > 100 µM | TGI [46]: > 100 µM | TGI [47]: > 100 µM | TGI [48]: > 100 µM | TGI [49]: > 100 µM | TGI [50]: > 100 µM | TGI [51]: > 100 µM | TGI [59]: > 100 µM | TGI [52]: > 100 µM | TGI [53]: > 100 µM | TGI [54]: > 100 µM | TGI [55]: > 100 µM | TGI [56]: > 100 µM

CC(=O)c1cccc(NC(=O)/C(=N\NC(C)(C)C)c2c(O)c3ccccc3oc2=O)c1
TGI [1]: > 100 µM | TGI [2]: > 100 µM | TGI [3]: > 100 µM | TGI [4]: > 100 µM | TGI [5]: > 100 µM | TGI [7]: > 100 µM | TGI [8]: > 100 µM | TGI [9]: > 100 µM | TGI [10]: > 100 µM | TGI [11]: > 100 µM | TGI [12]: > 100 µM | TGI [13]: > 100 µM | TGI [16]: > 100 µM | TGI [17]: > 100 µM | TGI [18]: > 100 µM | TGI [19]: > 100 µM | TGI [20]: > 100 µM | TGI [22]: > 100 µM | TGI [23]: > 100 µM | TGI [24]: > 100 µM | TGI [25]: > 100 µM | TGI [26]: > 100 µM | TGI [27]: > 100 µM | TGI [28]: > 100 µM | TGI [29]: > 100 µM | TGI [30]: > 100 µM | TGI [31]: > 100 µM | TGI [58]: > 100 µM | TGI [32]: > 100 µM | TGI [33]: > 100 µM | TGI [35]: > 100 µM | TGI [36]: > 100 µM | TGI [37]: > 100 µM | TGI [38]: > 100 µM | TGI [39]: > 100 µM | TGI [40]: > 100 µM | TGI [41]: > 100 µM | TGI [42]: > 100 µM | TGI [43]: > 100 µM | TGI [44]: > 100 µM | TGI [45]: > 100 µM | TGI [46]: > 100 µM | TGI [47]: > 100 µM | TGI [48]: > 100 µM | TGI [49]: > 100 µM | TGI [50]: > 100 µM | TGI [59]: > 100 µM | TGI [52]: > 100 µM | TGI [53]: > 100 µM | TGI [54]: > 100 µM | TGI [55]: > 100 µM | TGI [56]: > 100 µM
